Where a name gives a salt, the structure may show the parent alone.
Legend:
alpha-1 receptors = test: Inhibition of binding of [3H]Prazosine to rat alpha-1 receptors; details: [3H]Prazosine 0.25 nM, membranes from rat brain
Experimental: Inhibition of Binding of [^3H]Prazosine to Rat Alpha-1 Receptors
By this method the inhibition by drugs of the binding of [^3H]Prazosine (0.25 nM) to alpha-1 receptors in membranes from rat brain is determined in vitro. Method modified from Hyttel et al. J. Neurochem. 1985, 44, 1615–1622.

[1] = target: T1, human cloned dopamine D4.2 receptors (Homo sapiens, UniProt P21917, DEL265-296); test: Inhibition of the binding of [3H]YM-09151-2 to human dopamine D4 receptors; details: [3H]YM-09151-2 0.06 nM, membranes of CHO-cells; read-out: D4-bind. IC50
T1 construct: expressed in transfected cells; host or cells: CHO cells
T1 sequence (P21917 with tags, fused parts or gaps DEL265-296): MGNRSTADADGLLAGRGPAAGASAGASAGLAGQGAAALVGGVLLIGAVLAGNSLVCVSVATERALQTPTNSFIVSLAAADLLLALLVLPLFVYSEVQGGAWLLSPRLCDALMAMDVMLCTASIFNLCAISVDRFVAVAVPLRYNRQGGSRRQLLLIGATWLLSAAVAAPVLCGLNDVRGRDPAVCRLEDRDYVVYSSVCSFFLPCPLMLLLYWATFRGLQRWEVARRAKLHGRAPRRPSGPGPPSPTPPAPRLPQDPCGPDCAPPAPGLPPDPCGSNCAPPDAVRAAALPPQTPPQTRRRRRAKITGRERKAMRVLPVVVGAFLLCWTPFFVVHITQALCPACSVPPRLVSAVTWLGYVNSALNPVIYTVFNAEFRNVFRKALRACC
Experimental: Inhibition of the Binding of [^3H]YM-09151-2 to Human Dopamine D4 Receptors
By this method the inhibition by drugs of the binding of [^3H]YM-09151–2 (0.06 nM) to membranes of human cloned dopamine D4.2 receptors expressed in CHO-cells is determined in vitro. Method modified from NEN Life Science Products, Inc., technical data certificate PC2533-10/96.

[2] = target: T2, human cloned dopamine D3 receptors (Homo sapiens, UniProt P35462); test: Inhibition of the binding of [3H]Spiperone to human D3 receptors; details: [3H]Spiperone 0.3 nM, membranes of CHO-cells; read-out: D3-bind. IC50
T2 construct: expressed in transfected cells; host or cells: CHO cells
T2 sequence (P35462 whole entry): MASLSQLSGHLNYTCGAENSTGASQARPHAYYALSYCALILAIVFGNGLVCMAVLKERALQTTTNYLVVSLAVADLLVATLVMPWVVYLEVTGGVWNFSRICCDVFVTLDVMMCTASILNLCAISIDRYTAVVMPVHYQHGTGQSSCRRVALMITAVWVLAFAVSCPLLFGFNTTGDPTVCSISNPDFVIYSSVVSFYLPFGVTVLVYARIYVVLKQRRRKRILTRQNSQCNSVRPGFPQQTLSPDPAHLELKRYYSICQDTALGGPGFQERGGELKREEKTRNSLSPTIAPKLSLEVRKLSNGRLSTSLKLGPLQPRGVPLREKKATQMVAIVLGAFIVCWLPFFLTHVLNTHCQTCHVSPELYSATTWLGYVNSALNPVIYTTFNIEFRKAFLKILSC
Experimental: Inhibition of the Binding of [^3H]Spiperone to Human D3 Receptors
By this method the inhibition by drugs of the binding [^3H]Spiperone (0.3 nM) to membranes of human cloned dopamine D3 receptors expressed in CHO-cells is determined in vitro. Method modified from MacKenzie et al. Eur. J. Pharm.-Mol. Pharm. Sec. 1994, 266, 79–85.

Row | melting point [°C] | Compound | IC50 (alpha-1 receptors) [nM] | IC50 [1] [nM] | IC50 [2] [nM]
1 | 137 to 141 | Clc1ccc2c(SCCN3CCN(c4cccc(Cl)c4Cl)CC3)c[nH]c2c1 (as salt: oxalate) [Compound 4, 6-Chloro-3-{2-[4-(2,3-dichlorophenyl)piperazin-1-yl]ethylsulfanyl}-1H-indole] | – | – | –
2 | 234 to 235 | O=C1CCc2ccccc2N1CCCCN1CCN(c2cccc(Cl)c2Cl)CC1 (as salt: hydrochloride) [Compound 6, 1-{4-[4-(2,3-Dichlorophenyl)piperazin-1-yl]butyl}-3,4-dihydroquinolin-2(1H)-one] | – | – | –
3 | 219 to 228 | Clc1cccc(N2CCN(CCCCCN3CCc4ccccc43)CC2)c1Cl (as salt: hydrochloride) [Compound 2c, 1-{5-[4-(2,3-Dichlorophenyl)piperazin-1-yl]pentyl}-2,3-dihydro-1H-indole] | – | – | –
4 | 171 to 176 | Clc1cccc(N2CCN(CCCCC3CCc4ccccc43)CC2)c1Cl (stereo not shown) (as salt: oxalate) [Compound 3, 1-(2,3-Dichlorophenyl)-4-[4-(indan-1-yl)butyl]piperazine] | – | – | –
5 | – | Clc1cccc(N2CCN(CCCCN3CCc4ccccc43)CC2)c1 [Compound 2e, 1-{4-[4-(3-Chlorophenyl)piperazin-1-yl]butyl}-2,3-dihydro-1H-indole] | 40 | 1.6 | 17
